From patent publication US20080293090A1, “AUTOMATED SEMI-SOLID MATRIX ASSAY AND LIQUID HANDLER APPARATUS FOR THE SAME” (AVENTIS PHARMACEUTICALS INC., priority 2001, published 2008)
Where a name gives a salt, the structure may show the parent alone.

What was measured:
Assay type in all cases: cell-based
PC-3 = assay: Soft agar assay, flavopiridol on already formed one week colonies; conditions: Homo sapiens, 168 h, added to colonies formed after 7 days of incubation, read-out: Flavopiridol IC50 (uM) on Formed Colonies, Average ± Standard Error
Procedure: (§1) 25 μL of 10 μM calcein AM (in HBSS) is added to each well and allowed to incubate at 37 deg. C. for at least one hour. The plate is then read in a Cytofluor™ 4000 (3 counts/well) with a gain of 40. The fluorescence for calcein AM (after cleavage in live cells) is excitation=485+20 nm and emission=530+20 nm.
(§2) For analysis, the data provided by the CytoFluor™ are analyzed in EXCEL™. The DMSO control wells are averaged and the standard deviation determined. Each compound well is then divided by the control average×100 for % control. The triplicate wells are averaged and the standard deviation determined. There is some background fluorescence and the colonies treated after formation are not eliminated by the single two-week treatment. The background can be subtracted from each well. Statistical programs such as PRISM could also be used for the graphing and IC50 determination.
(§3) Table 7. provides the IC50 in micromolar values obtained using flavopiridol on already formed colonies of a number of different cell lines (one week colonies). Flavopiridol is added to colonies formed after 7 days of incubation at […]. This method of adding compounds to already formed colonies may be more predictive for the compound's effectiveness against a tumor in vivo.

HL-60 = assay: as above; conditions: Homo sapiens, 168 h, added to colonies formed after 7 days of incubation, read-out: Flavopiridol IC50 (uM) on Formed Colonies, Average ± Standard Error
Procedure: as §1, §2, §3

NCI-H460 = assay: as above; conditions: Homo sapiens, 168 h, added to colonies formed after 7 days of incubation, read-out: Flavopiridol IC50 (uM) on Formed Colonies, Average ± Standard Error
Procedure: as §1, §2, §3

tumor cells [1] = assay: Soft agar assay, hand-pipetted 24-well plates, Calcein AM stained method
Procedure: (§4) 25 μL of 10 μM calcein AM (in HBSS) is added to each well and allowed to incubate at 37 deg. C. for at least one hour. […] The fluorescence for calcein AM (after cleavage in live cells) is excitation=485+20 nm and emission=530+20 nm. For analysis, the data provided by the CytoFluor™ are analyzed in EXCEL™. The DMSO control wells are averaged and the standard deviation determined. Each compound well is then divided by the control average×100 for % control. The triplicate wells are averaged and the standard deviation determined. There is some background fluorescence and the colonies treated after formation are not eliminated by the single two-week treatment. The background can be subtracted from each well. Statistical programs such as PRISM could also be used for the graphing and IC50 determination. […] As a comparison, the same compounds were tested in the traditional hand-pipetted, 24-well plates, visually counted method. The only difference was that the soft agar assay used a 500 μL agarose layer in the 24-well plate and 75 uL/layer in the 96-well system, using the Sigma agarose. The two methods produced similar results, i.e. IC50s for the compounds, see Table 4.

MDA-MB435 = assay: Soft agar assay, flavopiridol on already formed one week colonies; conditions: Homo sapiens, MDA-MB-435, 168 h, added to colonies formed after 7 days of incubation, read-out: Flavopiridol IC50 (uM) on Formed Colonies, Average ± Standard Error
Procedure: as §1
(§5) For analysis, the data provided by the CytoFluor™ are analyzed in EXCEL™. The DMSO control wells are averaged and the standard deviation determined. Each compound well is then divided by the control average×100 for % control. The triplicate wells are averaged and the standard deviation determined. […] The background can be subtracted from each well. Statistical programs such as PRISM could also be used for the graphing and IC50 determination.
(§6) Flavopiridol is added to colonies formed after 7 days of incubation at 37 deg.

Colo 205 = assay: as above; conditions: Homo sapiens, 168 h, added to colonies formed after 7 days of incubation, read-out: Flavopiridol IC50 (uM) on Formed Colonies, Average ± Standard Error
Procedure: as §1, §5, §6

tumor cells [2] = assay: Automated soft agar assay, 96-well plates, Calcein AM stained method; conditions: read-out: IC50s (μM) with Flavopiridol 96-well
Procedure: as §4, with “It was determined that when plating with the test compound, the individual components, i.e., agarose, cells and compound, were more evenly distributed if premixed in a separate plate before being transferred to the 96-well plate. The test compounds were made 10× in RPMI GM, which was diluted to a 1× compound concentration in the mixing plate. […] Satisfactory results were obtained with the following combinations: 25” for “25”

tumor cells [3] = assay: Traditional soft agar assay, 24-well tray, visual counting of colonies; conditions: for IC50: read-out: IC50s Determined from Colony Counting; for Average # of colonies: 24-well tray
Procedure: As a comparison, the same compounds were tested in the traditional hand-pipetted, 24-well plates, visually counted method. The only difference was that the soft agar assay used a 500 μL agarose layer in the 24-well plate and 75 uL/layer in the 96-well system, using the Sigma agarose. The 24-well plates were also counted visually, Table 5, and the IC50s determined, Table 6.

[4] = flavopiridol added immediately after plating

In the case of `CN1CC[C@H](c2c(O)cc(O)c3c(=O)cc(-c4ccccc4Cl)oc23)[C@H](O)C1` [Flavopiridol, (cis-(−)-5,7-Dihydroxy-2-(2-chlorophenyl)-8-[4-(3-hydroxy-1-methyl)piperidinyl]-4H-1-benzopyran-4-one hydrochloride dihydrate], the IC50 (PC-3) is reported as 1.7 ± 0.04 µM, the IC50 (HL-60) is reported as 1.6 ± 0.15 µM and the IC50 (NCI-H460) is reported as 2.4 ± 0.1 µM. The IC50 (tumor cells [1]; cells plated with flavopiridol) was 0.08 µM, the IC50 (tumor cells [1]; [4]) was 0.4 µM and the IC50 (MDA-MB435) was 2.2 ± 0.09 µM. For the same compound, the IC50 (Colo 205) was 1.4 ± 0.06 µM, the IC50 (tumor cells [2]; 168 h, flavopiridol added to one week colonies) was 1 µM and the IC50 (tumor cells [2]; cells plated with flavopiridol) was 0.15 µM. For the same compound, the IC50 (tumor cells [2]; [4]) was 0.6 µM, the IC50 (tumor cells [3]; added immediately after plating, 24-well, visual counting) was 400 nM and the “IC50s Determined from Colony Counting” value (tumor cells [3]; added to 1-week colonies, 24-well, visual counting) was “did not reach 50% control”. For the same compound, the “Average # of colonies” value (tumor cells [3]; flavopiridol added immediately after plating, 0.00032 μM) was 30, the “Average # of colonies” value (tumor cells [3]; flavopiridol added immediately after plating, 0.0016 μM) was 30 and the “Average # of colonies” value (tumor cells [3]; flavopiridol added immediately after plating, 0.008 μM) was 32. For the same compound, the “Average # of colonies” value (tumor cells [3]; flavopiridol added immediately after plating, 0.04 μM) was 26, the “Average # of colonies” value (tumor cells [3]; flavopiridol added immediately after plating, 0.2 μM) was 27 and the “Average # of colonies” value (tumor cells [3]; flavopiridol added immediately after plating, 1 μM) was 0. The “Average # of colonies” value (tumor cells [3]; flavopiridol added immediately after plating, 5 μM) was 0, the “Average # of colonies” value (tumor cells [3]; flavopiridol added to one-week colonies, 0.0032 μM) was 34.0 and the “Average # of colonies” value (tumor cells [3]; flavopiridol added to one-week colonies, 0.016 μM) was 35.0. The “Average # of colonies” value (tumor cells [3]; flavopiridol added to one-week colonies, 0.08 μM) was 32.0, the “Average # of colonies” value (tumor cells [3]; flavopiridol added to one-week colonies, 0.4 μM) was 33 and the “Average # of colonies” value (tumor cells [3]; flavopiridol added to one-week colonies, 2 μM) was 25. For the same compound, the “Average # of colonies” value (tumor cells [3]; flavopiridol added to one-week colonies, 10 μM) was 32, the “Average # of colonies” value (tumor cells [3]; flavopiridol added to one-week colonies, 50 μM) was 20 and the IC50 (tumor cells [3]; plated with Flavo, 24-well, visual counting) was 90 nM. For the same compound, the “Average # of colonies” value (tumor cells [3]; plated with flavopiridol, 0.00032 μM) was 27, the “Average # of colonies” value (tumor cells [3]; plated with flavopiridol, 0.0016 μM) was 25 and the “Average # of colonies” value (tumor cells [3]; plated with flavopiridol, 0.008 μM) was 22. The “Average # of colonies” value (tumor cells [3]; plated with flavopiridol, 0.04 μM) was 25, the “Average # of colonies” value (tumor cells [3]; plated with flavopiridol, 0.2 μM) was 0 and the “Average # of colonies” value (tumor cells [3]; plated with flavopiridol, 1 μM) was 0. For the same compound, the “Average # of colonies” value (tumor cells [3]; plated with flavopiridol, 5 μM) was 0.
